# Reference: article PMC11802874, “The hypolipidemic effect of MI-883, the combined CAR agonist/ PXR antagonist, in diet-induced hypercholesterolemia model” (Nature Communications, 2025)
# Where “and” joins values, the source holds several entries; their conditions need not be identical. Equal entries are not always repeated. Where two headings read alike, the source gives them in different places.
# Legend:
# [1] = molecular target: T1, human PXR LBD (Homo sapiens, UniProt O75469); assay: PXR LBD assembly assay in HepG2 cells; format: cell-based
# T1 construct: helix 1 part of the LBD of PXR (residues 132–188); helices 2-12 of the PXR-LBD (residues 189-434); expressed in transfected cells; host or cells: HepG2
# Source text: A human PXR LBD assembly assay (Fig. 1k) was done with expression plasmids encoding fusion protein of GAL4-DNA binding domain (DBD) and helix 1 part of the LBD of PXR (residues 132–188) and fusion protein of VP16 activation domain (AD) and helices 2-12 of the PXR-LBD (residues 189-434), respectively, which have all been described previously. Metridia luciferase expression plasmid pMetLuc2control was obtained by Takara-Clontech (Mountain View, CA, USA). Transient batch transfection of HepG2 cells was done in 96-well plates using Jet-PEI transfection reagent (Polyplus, Illkirch, France), as described previously. The following amounts of plasmid DNA per well were used: 0.24 µg pGL4-G5 and 0.03 µg each of expression plasmids encoding GAL4-DBD/PXR(132-188) and VP16-AD/PXR(189-434). All transfections included 0.01 µg pMetLuc2control per well for normalization of firefly luciferase reporter activities. After overnight incubation with the transfection mixtures, cells were treated with chemicals in a volume of 100 µl of cell culture medium. […] Firefly luciferase activity was measured in 10 µl of cell lysates, and Metridia luciferase activity was analyzed in 10 µl of medium supernatant, both as described before. Results were normalized by dividing firefly luciferase activity by Metridia luciferase activity measured from the same well.
# [2] = system: humanized PXR-CAR-CYP3A4/3A7 mice, liver; assay: NGS RNA-Seq of liver samples (HFD study); format: in vivo, mouse
# Description: Total RNA from liver samples has been isolated using TRIZOL®. Total RNA was purified using Agencourt RNAClean XP Beads (Beckman Coulter, Inc.) and then the diluted RNA was quantified using Qubit 2.0 Fluorometer with Qubit RNA BR Assay Kit (Invitrogen) for precise measurement. The integrity of purified RNA was evaluated based on RIN (>7) acquired using the 2100 Bioanalyzer System with Total RNA Nano Chip (Agilent Technologies) according to the manufacturer’s protocol.
# The input amount of total RNA used in the libraries was 520 ng. Libraries were constructed with NEBNext Ultra II Directional RNA Library Prep Kit for Illumina (New England Biolabs Inc., Ipswich, MA, USA). […] The samples were multiplexed using suitable molecular barcodes by using the NEBNext Multiplex Oligos from Illumina. Adaptor enrichment was performed by using eight cycles of PCR.
# The concentration of molecular libraries was measured using Qubit 2.0 Fluorometer with Qubit dsDNA HS Assay Kit (Invitrogen) and subsequently, the fragment sizes were analyzed by Bioanalyzer System 2100 using High Sensitivity DNA Chip (Agilent Technologies), with expected fragments between 200 and 600 bp in size. The molarity of individual libraries was calculated using determined concentrations and modal lengths. Each sample of the library was normalized to 14 nM concentration, and the normalized libraries were pooled and sequenced on an Illumina NovaSeq6000 platform (Illumina) with paired-end sequencing of libraries with a read length of 150 b.
# The quality of raw sequencing data was assessed using MultiQC tool. Fastq files were aligned to the mouse reference genome (mm10) using STAR aligner and featureCounts was used to make count matrices. Data was filtered to only include genes with a minimum 60 counts in all samples. Data were analyzed using the DESeq2 package of RStudio 2023.06.1 and R software v4.3.1 (https://www.R-project.org/). […] P values were adjusted for multiple testing to reduce false discovery rate. For further analysis RNAs with more than twofold expression were selected (log2FC > 1 or < –1). Differential expression was analyzed using DESeq2 package (Fig. 4a). Volcano plot was visualized using R package ggplot2 and ggrepel. Gene ontology (GO) and pathway analyses were done with the R package clusterProfiler[64] using function enrichGO. P value < 0.001 was defined as the significance threshold.
# A heatmap was made using z-score normalized reads (z = [x-mean]/standard deviation) and visualized using the R package pheatmap. Hierarchical clustering was performed with the Ward method as a part of the pheatmap R package. The data presented in this publication have been deposited in NCBI’s Gene Expression Omnibus database with GEO Series accession number GSE262786.https://www.ncbi.nlm.nih.gov/geo/query/acc.cgi?acc=GSE262786.
# [3] = molecular target: T2, human PXR (Homo sapiens, UniProt O75469); assay: PXR luciferase reporter gene assay (CYP3A4-luc) in HepG2 cells; format: cell-based; parameters: host or cells: HepG2
# T2 sequence (O75469 1-434): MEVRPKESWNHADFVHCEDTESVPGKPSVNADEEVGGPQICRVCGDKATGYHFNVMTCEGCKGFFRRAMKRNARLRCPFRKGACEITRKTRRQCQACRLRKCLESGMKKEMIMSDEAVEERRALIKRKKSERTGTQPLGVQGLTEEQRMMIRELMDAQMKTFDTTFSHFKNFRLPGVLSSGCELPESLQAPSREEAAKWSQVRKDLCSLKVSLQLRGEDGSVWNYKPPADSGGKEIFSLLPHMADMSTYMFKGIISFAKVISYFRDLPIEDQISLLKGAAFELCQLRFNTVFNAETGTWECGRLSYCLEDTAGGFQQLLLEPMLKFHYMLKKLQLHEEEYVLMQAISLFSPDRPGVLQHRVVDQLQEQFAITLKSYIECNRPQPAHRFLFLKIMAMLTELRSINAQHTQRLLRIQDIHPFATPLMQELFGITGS
# Description: The half maximal effective concentration (EC50) to activate CAR or inhibit PXR (IC50) in the assays was calculated from at least eight points of the dose-response curves using the GraphPad Prism software.
structure (smiles),measurement,setting,value
"NC(=O)c1cc(Cn2cc(-c3c(-c4ccc(Cl)cc4)nc4cc(F)ccn34)nn2)ccc1Cl [MI-883, 2-chloro-5-((4-(2-(4-chlorophenyl)-7-fluoroimidazo[1,2-a]pyridin-3-yl)-1H-1,2,3-triazol-1-yl)methyl)benzamide]",PXR LBD assembly,[1],stimulates
same,"liver Apoc1, Apoc4, Apoa5, Apoa1, RNA-Seq",[2]; HFD study,marginally but significantly downregulated
same,"liver Scarb1, Angptl3, Lipc, RNA-Seq",[2]; HFD study,"marginally, but significantly, downregulated"
same,"liver genes of fatty acid metabolism (Scd1, Fabp2, Srebf1), RNA-Seq",[2]; HFD study,significantly downregulated
same,"liver transporters Abcb1, Bsep, Abcg5/8",[2]; HFD study,not been significantly affected
same,liver Hmgcr mRNA upregulation,[2]; HFD study (Fig. 6e),1.31 fold and 1.3 fold
same,"liver Scd1 mRNA, log2FC_DESeq","[2]; HFD study, n=5, FDR_DESeq 0.0023",-0.4854 log2FC
same,"liver Cyp2c70, log2FC","[2]; HFD study, 0.008 FDR_DESeq",–0.58 log2FC
same,IC50,"[3]; HepG2 cells, read-out: IC50, basal PXR activation",2030 ± 300 nM
same,IC50,"[3]; HepG2 cells, read-out: IC50, rifampicin-induced PXR activation",3600 ± 400 nM
same,IC50,"[3]; reply to reviewers, read-out: IC50 for PXR antagonistic activity",2000 nM
